The text below walks through data of patent publication US20050282818A1, “Ubiquitin ligase inhibitors” (Rigel Pharmaceuticals, Inc., priority 2004, published 2005).

Where two headings read alike, the source gives them in different places. Where only a bound is given, the exact number is not on record here.

Holding throughout (assay type): cell-based
In one experiment the test system is HCT116 cells. Description: Cell proliferation PAD assay, HCT116. The following applies: Homo sapiens, 48 hours. The source says:
(§1) Table 3 illustrates the inhibitory activity of the compounds of the invention determined by the PAD assay described above in a number of cell types. Apoptosis was not
Cell lines used are available from American Type Culture Collection (ATCC), for example, cell cultures containing A549 (ATCC# CCL-185), HeLa (ATCC# CCL-2), HCT116 ATTC# CCL-247), and H1299 (ATCC# CRL-5803) cells were maintained in T175 flasks following the ATCC recommended media and handling procedures. […] A 20,000 cells/ml solution was made for plating. Cells were plated in black Packard 96 well plates by placing 100 μl per well (2,000 cells per well). […] The definitions of the cell types used are as follows: A549 is lung carcinoma; HI 299 is non-small cell lung carcinoma; HI 155 is non-small cell lung carcinoma; AsPC-1 is pancreatic adenocarcinoma; Caov-3 is ovarian adenocarcinoma; COLO 205 is colorectal adenocarcinoma; DLD-1 colorectal adenocarcinoma; HCT116 is colorectal carcinoma; DU 145 is prostate carcinoma; ES-2 is ovarian clear cell carcinoma; H460 is large cell lung carcinoma; HELA is cervical adenocarcinoma; MIA PaCa-2 is pancreatice carcinoma; OVCAR-3 is ovarian adenocarcinoma; OVCAR8 is ovarian carcinoma; PC3 is prostate adenocarcinoma; SK-OV-3 is ovarian adenocarcinoma; SU86.86 is pancreatic carcinoma; TOV-21G is avarian clear cell carcinoma; U2OS is bone osteosarcoma; is ASPC-I is pancreatic adenocarcinoma; BXPC-3 is pabcreatic adenocarcinoma; HL60 is promyeloblast promyelocytic leukemia; K562 is bone marrow chronic myelogenous leukemia; L1210 is mouse lymphocytic leukemia; MOLT3 is T lymphoblast acute lymphoblastic leukemia; MOLT4 is T lymphoblast acute lymphoblastic leukemia; SW620 is colorectal adenocarcinoma; THP-1 is monocyte acute monocytic leukemia; U937 is histiocytic lymphoma; and UACC-257 is melanoma.
Compounds and additional media were added 24 hours after cell plating. A compound master plate was created with concentrations 500 times greater than the final concentration added to the cells. All compound testing was done in duplicate using 6.3 fold dilutions starting with 10 mM. All outside wells (and 4 internal wells) were DMSO controls. Taxol and at least one additional control were run on all plates. Three microliters of the compound master plate were added to deep well blocks containing 750 μl of RPMI media. One hundred microliters were transferred from the compound/media deep well blocks to the plated cells resulting in a 500 fold dilution of the compounds. Cells were grown at 37° C., 5% CO2 for 48 hours.
Cells to be analyzed by photography were fixed and stained. One hundred microliters of media were removed and 100 μl of 9.3% formamide was added to each well. Plates were left on the benchtop for 45 minutes. A staining solution containing 1.55 μl of 1 mg/ml DAPI added to 18.75 ml PBS was warmed for 15 minutes at 37° C. The cells were aspirated prior to washing with 100 μl of PBS. Seventy microliters of PBS were aspirated and 170 μl of the DAPI solution were added to each well of fixed cells. Plates were left at room temperature for one hour then aspirated and washed twice with 100 μl of PBS. The stained cells were left at 4° C. for a minimum of 16 hours before photographic analysis with Array Scan II (Cellomics). Analysis of the photographic images to determine numbers of live cells (proliferation), apoptotic cells and dead cells, were according to the methods described in U.S. Utility patent application Ser. No. 10/652,440, which incorporated herein in its entirety.

The subject of another experiment is COLO 205 cells. The experiment is described as follows: Cell proliferation PAD assay, COLO 205. To be noted: Homo sapiens, Colo205 cells, 9pt, 48 hours.
Description: as §1
(§2) Cell lines used are available from American Type Culture Collection (ATCC), for example, cell cultures containing A549 (ATCC# CCL-185), HeLa (ATCC# CCL-2), HCT116 ATTC# CCL-247), and H1299 (ATCC# CRL-5803) cells were maintained in T175 flasks following the ATCC recommended media and handling procedures. […] A 20,000 cells/ml solution was made for plating. Cells were plated in black Packard 96 well plates by placing 100 μl per well (2,000 cells per well). […]
(§3) Cells to be analyzed by photography were fixed and stained. […]

The test system of the next experiment is MIA PaCa-2 cells. The experiment is described as follows: Cell proliferation PAD assay, MIA PaCa-2. To be noted: Homo sapiens, Miapaca2 cells, 9pt, 48 hours.
Description: as §1, §2, §3

Setting [1] is: HCT-116, 6pt, read-out: HCT116 6pt.

In the case of `O=S(=O)(Nc1ccc2cn[nH]c2c1)c1ccc(Cl)c2nonc12` [compound 220, 7-chloro-N-1 H-indazol-6-yl-2,1,3-benzoxadiazole-4-sulfonamide], the IC50 in the experiment on HCT116 cells (setting [1]) was in the range of 1 to 20 µM.

Turning to `Cc1cc(C)cc(-c2ccc([N+](=O)[O-])c3nonc23)c1` [compound 286, 4-(3,5-Dimethylphenyl)-7-nitro-2,1,3-benzoxadiazole], in the experiment on HCT116 cells (setting [1]), the IC50 was below 1 µM.

Turning to `O=[N+]([O-])c1ccc(SCCO)c2nonc12` [compound 150, 2-[(7-nitro-2,1,3-benzoxadiazol-4-yl)thio]ethanol], in the experiment with HCT116 cells (setting [1]), the IC50 was below 1 µM.

On to `COC(=O)c1ccc(NS(=O)(=O)c2c(Cl)ccc3nonc23)cc1` [compound 178, methyl 4-{[(5-chloro-2,1,3-benzoxadiazol-4-yl)sulfonyl]amino}benzoate], for which the IC50 with HCT116 cells (setting [1]) was below 1 µM.

As to `CC1(C)CCN(S(=O)(=O)c2c(Cl)ccc3nonc23)CC1` [compound 245, 5-chloro-4-[(4,4-dimethylpiperidin-1-yl)sulfonyl]-2,1,3-benzoxadiazole], the IC50 in the experiment on COLO 205 cells is below 1 µM; in the experiment with HCT116 cells (HCT-116, 9pt, read-out: HCT116 9pt), below 1 µM; with MIA PaCa-2 cells, below 1 µM.

Take `Cc1cccc(N2CCN(S(=O)(=O)c3c(Cl)ccc4nonc34)CC2)n1` [compound 202, 5-chloro-4-{[4-(6-methylpyridin-2-yl)piperazin-1-yl]sulfonyl}-2,1,3-benzoxadiazole]: the IC50 in the experiment with HCT116 cells (setting [1]) is below 1 µM.

In the case of `O=S(=O)(c1c(Cl)ccc2nonc12)N1CCN(c2ncc(C(F)(F)F)cc2Cl)CC1` [compound 179, 5-chloro-4-({4-[3-chloro-5-(trifluoromethyl)pyridin-2-yl]piperazin-1-yl}sulfonyl)-2,1,3-benzoxadiazole], the IC50 in the experiment with HCT116 cells (setting [1]) was in the range of 1 to 20 µM.
